Where a SMILES comes first, the peptide text is derived from it. Bridges are numbered along the chain shown (N, C = ends). [ ]: non-standard residue; d: D form. 2Nal = N[C@@H](Cc1ccc2ccccc2c1)C(=O)O; d2Nal = N[C@H](Cc1ccc2ccccc2c1)C(=O)O
Legend:
GRP Receptor = molecular target: T1, GRP Receptor (Rattus norvegicus, UniProt P52500); test: Amylase release from rat pancreatic acini; assay type: cell-based
T1 construct: from tissue; host or cells: dispersed pancreatic acini

[1] = system: endothelin-1-simulated increases in [^3H]IP; test: Endothelin-1-stimulated [3H]IP in C-6 glioblastoma cells; assay type: cell-based, rat; settings: for effect on endothelin-1-simulated increases in [^3H]IP in C-6 cells: Table 3
Method: Total phosphoinositides in C-6 cells and in NMB-R transfected cells were determined as described previously, with minor modifications [Benya, R. V. et al. Mol. Pharmacol. 42:1058 (1992); and Wang, L-H. et al. Biochem. J. 286:641 (1992)]. Cells were grown to confluence in 24-well plates and then loaded with 100 µCi/ml myo-[2-^3H]inositol in Dulbecco's modified essential medium with 2% fetal bovine serum at 37°C for 48 hrs. Cells were washed and incubated in phosphoinositide buffer (standard buffer additionally containing 10 mM LiCl, 20 mM HEPES, 2 mM CaCl2, 2% BSA, and 1.2 mM MgSO4) for 15 min and then for 60 min at 37°C with agonists at various concentrations or with 3 nM NMB (a half-maximal effective concentration) and possible antagonists at different concentrations. Reactions were halted using ice-cold 1% HCl in methanol, and the inositol phosphates (IP) were isolated as described previously [Bologna, M. et al. Cancer 63:1714 (1989); and Endo, T. et al. J. Endocrinol. 131:313 (1991)]. Briefly, after loading of the anion exchange column, free [^3H]glycerophosphorylinositol was removed by washing with 5 mM disodium tetraborate in 60 mM sodium formate. Total [^3H]inositol phosphates were then eluted using 100 mM formic acid in 1.0 M ammonium formate as described previously [Benya, R. V. et al. Mol. Pharmacol. 42:1058 (1992); and Wang, L-H. et al. Biochem. J. 286:641 (1992)].

[2] = molecular target: T2, NMB receptors on rat olfactory bulb membranes (Rattus norvegicus, UniProt P24053); test: NMB membrane receptor assay (rat olfactory bulb membranes); assay type: binding
T2 construct: Membranes were prepared from rat olfactory bulb (NMB membrane receptor assay); from tissue; host or cells: rat olfactory bulb membranes
T2 sequence (P24053 1-390): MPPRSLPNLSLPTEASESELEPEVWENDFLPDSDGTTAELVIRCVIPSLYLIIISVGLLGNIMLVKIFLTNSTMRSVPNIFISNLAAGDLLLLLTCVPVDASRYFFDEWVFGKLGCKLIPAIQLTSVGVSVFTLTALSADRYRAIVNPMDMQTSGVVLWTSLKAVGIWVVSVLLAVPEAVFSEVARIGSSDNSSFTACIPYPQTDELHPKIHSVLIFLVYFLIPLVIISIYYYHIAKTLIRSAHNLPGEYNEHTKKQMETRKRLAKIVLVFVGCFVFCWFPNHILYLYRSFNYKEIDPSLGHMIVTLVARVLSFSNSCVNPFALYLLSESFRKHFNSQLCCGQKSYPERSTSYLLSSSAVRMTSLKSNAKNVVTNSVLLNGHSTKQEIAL

endothelinA = molecular target: T3, endothelinA (Rattus norvegicus, UniProt P26684); test: EtA membrane receptor assay (A10 smooth muscle cells); assay type: binding; settings: at 1 µM
T3 construct: A10 smooth muscle cells (EtA membrane receptor assay); endogenous in cells; host or cells: A10 smooth muscle cells (membranes)

PYY receptor = test: PYY membrane receptor assay; assay type: binding, rat; settings: at 1 µM
TRH receptor = test: TRH membrane assay; assay type: binding, rat; settings: at 1 µM
α1- adrenergic = test: alpha1-adrenergic membrane receptor assay; assay type: binding, rat; settings: at 1 µM
α2- adrenergic = test: alpha2-adrenergic membrane receptor assay; assay type: binding, rat; settings: at 1 µM
β1-adrenergic = molecular target: T4, β1-adrenergic (Homo sapiens, UniProt P08588); test: beta1-adrenergic membrane receptor assay; assay type: binding; settings: at 1 µM
T4 construct: receptors on plasma membranes on various tissues determined as described in METHODS; from tissue

muscarinic cholinergic = test: Muscarinic cholinergic membrane receptor assay; assay type: binding, rat; settings: at 1 µM
[3] = molecular target: T5, benzodiazepine-peripheral receptor (Rattus norvegicus, UniProt P16257); test: Peripheral benzodiazepine membrane receptor assay; assay type: binding; settings: at 1 µM
T5 construct: rat cerebral cortex (CCKB, PYY, neurotensin, ∝1-adrenergic, ∝2-adrenergic, muscarinic cholinergic, neural benzodiazepine, peripheral benzodiazepine); from tissue; host or cells: rat cerebral cortex membranes

dopamine2 = molecular target: T6, dopamine2 (Rattus norvegicus, UniProt P61169); test: dopamine2 membrane receptor assay; assay type: binding; settings: at 1 µM
T6 construct: rat corpus striatum (dopamine1 and dopamine2 membrane receptor assays); from tissue; host or cells: rat corpus striatum membranes

adenosine1 = molecular target: T7, adenosine1 (Rattus norvegicus, UniProt P25099); test: Adenosine membrane receptor assay; assay type: binding; settings: at 1 µM
T7 construct: rat cerebral cortex (CCKB, PYY, neurotensin, ∝1-adrenergic, ∝2-adrenergic, muscarinic cholinergic, neural benzodiazepine, peripheral benzodiazepine, adenosine); from tissue; host or cells: rat cerebral cortex membranes

sigma opioid receptor = molecular target: T8, sigma opioid receptor (Cavia porcellus, UniProt Q60492); test: sigma opioid membrane receptor assay; assay type: binding, guinea pig; settings: at 1 µM
T8 construct: guinea pig cerebral (N1, histamine H1, and sigma opioid membrane receptor assays); from tissue; host or cells: guinea pig cerebral membranes

[4] = molecular target: T9, N-methyl D-aspartate receptors (Rattus norvegicus, UniProt P35439); test: N-methyl-D-aspartate membrane receptor assay; assay type: binding; settings: at 1 µM
T9 construct: from tissue; host or cells: rat cerebral cortex membranes

T1 sequence (P52500 whole entry): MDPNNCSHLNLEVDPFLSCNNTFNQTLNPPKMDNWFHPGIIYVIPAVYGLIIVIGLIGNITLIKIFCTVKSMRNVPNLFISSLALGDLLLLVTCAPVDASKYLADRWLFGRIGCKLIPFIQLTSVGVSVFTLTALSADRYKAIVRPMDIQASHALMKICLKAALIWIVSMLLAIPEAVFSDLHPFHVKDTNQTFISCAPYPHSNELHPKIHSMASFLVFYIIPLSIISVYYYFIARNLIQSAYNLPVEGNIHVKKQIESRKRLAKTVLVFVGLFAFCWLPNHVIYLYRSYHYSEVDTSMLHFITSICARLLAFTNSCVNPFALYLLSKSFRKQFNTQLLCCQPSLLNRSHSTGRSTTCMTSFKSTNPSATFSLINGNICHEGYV
T3 sequence (P26684 21-426): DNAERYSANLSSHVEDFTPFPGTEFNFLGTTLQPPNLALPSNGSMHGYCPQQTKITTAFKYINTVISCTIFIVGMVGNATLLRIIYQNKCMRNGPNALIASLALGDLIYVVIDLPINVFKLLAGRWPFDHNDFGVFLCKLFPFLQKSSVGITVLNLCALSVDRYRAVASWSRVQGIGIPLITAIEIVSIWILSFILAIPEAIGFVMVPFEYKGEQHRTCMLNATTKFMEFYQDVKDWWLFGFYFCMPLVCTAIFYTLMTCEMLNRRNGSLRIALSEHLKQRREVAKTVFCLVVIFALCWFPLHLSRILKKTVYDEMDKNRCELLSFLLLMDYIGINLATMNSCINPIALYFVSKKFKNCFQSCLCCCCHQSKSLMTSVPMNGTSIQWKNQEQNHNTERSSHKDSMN
T8 sequence (Q60492 whole entry): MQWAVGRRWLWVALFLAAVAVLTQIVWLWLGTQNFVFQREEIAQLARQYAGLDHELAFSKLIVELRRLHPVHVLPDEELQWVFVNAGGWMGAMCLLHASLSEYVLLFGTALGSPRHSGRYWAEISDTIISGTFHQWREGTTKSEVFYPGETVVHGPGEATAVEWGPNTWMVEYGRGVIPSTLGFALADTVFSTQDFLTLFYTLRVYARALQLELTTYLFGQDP
T4 sequence (P08588 whole entry): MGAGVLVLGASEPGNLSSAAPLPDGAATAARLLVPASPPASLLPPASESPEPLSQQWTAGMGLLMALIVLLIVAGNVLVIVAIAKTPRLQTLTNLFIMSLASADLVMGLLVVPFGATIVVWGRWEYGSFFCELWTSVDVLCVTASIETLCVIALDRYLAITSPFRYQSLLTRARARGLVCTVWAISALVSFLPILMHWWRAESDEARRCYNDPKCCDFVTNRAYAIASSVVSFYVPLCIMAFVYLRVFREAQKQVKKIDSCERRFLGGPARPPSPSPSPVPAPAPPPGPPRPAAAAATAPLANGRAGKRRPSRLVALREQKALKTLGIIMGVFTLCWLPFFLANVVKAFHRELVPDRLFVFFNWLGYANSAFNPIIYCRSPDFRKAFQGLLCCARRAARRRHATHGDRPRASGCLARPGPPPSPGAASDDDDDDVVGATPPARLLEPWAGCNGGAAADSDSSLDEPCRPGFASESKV
T5 sequence (P16257 whole entry): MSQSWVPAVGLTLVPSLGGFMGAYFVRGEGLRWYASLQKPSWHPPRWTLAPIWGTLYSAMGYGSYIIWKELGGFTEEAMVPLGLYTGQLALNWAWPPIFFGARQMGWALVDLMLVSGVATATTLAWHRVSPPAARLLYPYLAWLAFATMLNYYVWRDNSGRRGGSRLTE
T6 sequence (P61169 whole entry): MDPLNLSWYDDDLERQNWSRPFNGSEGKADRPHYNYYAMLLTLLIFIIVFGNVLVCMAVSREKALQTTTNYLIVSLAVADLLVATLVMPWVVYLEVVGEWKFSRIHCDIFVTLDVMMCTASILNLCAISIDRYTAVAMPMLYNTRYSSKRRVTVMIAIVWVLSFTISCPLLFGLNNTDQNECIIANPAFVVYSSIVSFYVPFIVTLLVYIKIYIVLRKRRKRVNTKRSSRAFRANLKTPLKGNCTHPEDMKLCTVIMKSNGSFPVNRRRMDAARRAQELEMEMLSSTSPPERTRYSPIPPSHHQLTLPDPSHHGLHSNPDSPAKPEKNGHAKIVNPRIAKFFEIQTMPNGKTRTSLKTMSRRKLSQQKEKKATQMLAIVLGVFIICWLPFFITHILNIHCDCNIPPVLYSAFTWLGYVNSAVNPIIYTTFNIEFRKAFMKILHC
T7 sequence (P25099 whole entry): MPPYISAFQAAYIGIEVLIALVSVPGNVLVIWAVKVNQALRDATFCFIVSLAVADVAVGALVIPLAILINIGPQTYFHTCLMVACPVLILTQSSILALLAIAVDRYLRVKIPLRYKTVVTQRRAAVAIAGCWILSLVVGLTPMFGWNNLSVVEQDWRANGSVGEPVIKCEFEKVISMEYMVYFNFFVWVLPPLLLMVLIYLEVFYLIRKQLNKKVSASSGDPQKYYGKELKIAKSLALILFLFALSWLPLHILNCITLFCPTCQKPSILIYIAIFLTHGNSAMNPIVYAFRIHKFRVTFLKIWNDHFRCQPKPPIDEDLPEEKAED

CC(C)[C@@H]1NC(=O)[C@H](CCCCN)NC(=O)[C@@H](Cc2c[nH]c3ccccc23)NC(=O)[C@H](Cc2ccc(O)cc2)NC(=O)[C@@H](NC(=O)[C@H](N)Cc2ccc3ccccc3c2)CSSC[C@@H](C(=O)N[C@@H](Cc2ccc3ccccc3c2)C(N)=O)NC1=O [Analog #1, D-Nal-Cys-Tyr-D-Trp-Lys-Val-Cys-Nal-NH2] (H-[d2Nal]CY[dW]KVC[2Nal]-NH2; disulfide 2-7; N-terminus assumed)
Rat Pancreatic Acini Amylase Release Alone (10µM) (GRP Receptor; analog 10 µM alone, no-additive control 4 ± 1): 5 ± 1 % total
Rat Pancreatic Acini Amylase Release Plus Bn(0.3 nM) (GRP Receptor; analog 10 µM plus Bn 0.3 nM, Bn without analog 15 ± 1): 15 ± 2 % total
effect on Bn-stimulated amylase release (GRP Receptor; rat pancreatic acini, Bn 0.3 nM, peptide 10 µM): did not inhibit
[^3H]IP, Peptide Added ET-1 (0.1 nM) ([1]; C-6 glioblastoma cells, analog 10 µM plus ET-1 0.1 nM): 10.9 ± 1.8 dpm x 10^3
effect on endothelin-1-simulated increases in [^3H]IP in C-6 cells [1]: had no effect
effect on endothelin-1-simulated increases in [^3H]IP in C-6 cells ([1]; listed as Cycle SS-octa): did not inhibit
inhibition at 1 µM ([2]; at 1 µM, read-out: inhibition of binding to NMB receptors on rat olfactory bulb membranes): > 95%
fold greater affinity for NMB receptors than mu opioid receptors ([2]; rat olfactory bulb versus rat forebrain membranes (Table 4)): 10 fold
inhibition of binding to endothelinA (endothelinA): did not inhibit binding
inhibition of binding to PYY (PYY receptor): did not inhibit binding
inhibition of binding to TRH (TRH receptor): did not inhibit binding
inhibition of binding to α1- adrenergic (α1- adrenergic): did not inhibit binding
inhibition of binding to α2- adrenergic (α2- adrenergic): did not inhibit binding
inhibition of binding to β1-adrenergic (β1-adrenergic): did not inhibit binding
inhibition of binding to muscarinic cholinergic (muscarinic cholinergic): did not inhibit binding
inhibition of binding to benzodiazepine peripheral [3]: did not inhibit binding
inhibition of binding to dopamine2 (dopamine2): did not inhibit binding
inhibition of binding to adenosine1 (adenosine1): did not inhibit binding
inhibition of binding to sigma opioid (sigma opioid receptor): did not inhibit binding
inhibition of binding to N-methyl D-aspartate receptors [4]: did not inhibit binding
